Among the data in US12528784B2, “Alkynyl-(heteroaryl)-carboxamide HCN1 inhibitors” (Hoffmann-La Roche Inc., priority 2019, dated 2026) are IC50 values, retold here.

As a reminder, the IC50 is the concentration that inhibits the measured activity by half. A high value points to lower potency.

Format in all cases: cell-based
For one test, the target named is T1, HCN3 (Homo sapiens, UniProt Q9P1Z3).
T1 construct: expressed in transfected cells
T1 sequence (Q9P1Z3 1-774): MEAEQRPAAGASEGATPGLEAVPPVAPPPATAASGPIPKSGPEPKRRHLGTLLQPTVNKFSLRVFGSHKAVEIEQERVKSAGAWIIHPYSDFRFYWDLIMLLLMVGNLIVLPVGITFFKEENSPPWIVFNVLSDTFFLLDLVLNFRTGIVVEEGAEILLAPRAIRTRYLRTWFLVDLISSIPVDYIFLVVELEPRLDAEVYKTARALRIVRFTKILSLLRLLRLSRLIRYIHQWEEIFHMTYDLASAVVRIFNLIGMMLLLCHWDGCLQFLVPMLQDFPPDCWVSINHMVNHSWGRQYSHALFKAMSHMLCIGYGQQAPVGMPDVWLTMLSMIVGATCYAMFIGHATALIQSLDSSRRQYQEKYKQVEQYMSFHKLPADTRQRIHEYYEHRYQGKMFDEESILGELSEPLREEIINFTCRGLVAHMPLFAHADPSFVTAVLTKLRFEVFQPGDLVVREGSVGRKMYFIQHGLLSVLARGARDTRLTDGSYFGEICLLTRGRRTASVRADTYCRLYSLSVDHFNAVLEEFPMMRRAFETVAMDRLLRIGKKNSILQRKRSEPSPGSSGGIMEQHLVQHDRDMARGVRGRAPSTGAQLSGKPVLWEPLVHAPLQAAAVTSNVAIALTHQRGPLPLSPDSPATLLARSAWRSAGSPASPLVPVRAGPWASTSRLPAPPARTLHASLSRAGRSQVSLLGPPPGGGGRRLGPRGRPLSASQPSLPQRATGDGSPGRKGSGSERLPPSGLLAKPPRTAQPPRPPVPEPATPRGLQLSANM
Nature of the test: HCN3 automated patch clamp current inhibition assay (Ionworks Barracuda). The note with it: HEK-293 cells stably expressing HCN3; current inhibition during a hyperpolarizing pulse of -100 mV. How it is done: (§1) In vitro, high-throughput cellular electrophysiology was employed to detect voltage- and use-dependence of compounds in single concentration screening and IC50 determination for library and medicinal chemistry profiling compounds in 384 well plates.
(§2) Cell cultures were maintained in DMEM/F12 cell growth media containing FBS and appropriate antibiotics at 37° C., 5% CO2 for a maximum of 20 passages. At a time point of 40-72 hours prior to assay, the expression of HCN protein in the cells is induced by addition of tetracyclin. Cells may be incubated at 27° C. for 2-24 hours of induction. […] Cells were harvested at 80% confluency and resuspended in extracellular buffer and added to wells. A freshly prepared Escin solution was added to intracellular buffer and applied to establish whole cell recording via perforated patch clampling by APC.
(§3) Currents through activated channels were measured directly by APC by employing hyperpolarizing voltage steps. The activation window was increased and stabilized by the addition of cell permeable Br-cAMP. Baselines were established for both use- and voltage-dependence protocols using a −30 mV holding potential and multiple test pulses at −100 mV or by 20 mV steps from −120 to 0 mV, respectively. Test compounds were added after baseline recordings followed by a 10 min incubation, voltage-dependency protocol recording, and use-dependency recording. Data was corrected for baseline and rundown (well based) and normalized for % inhibition (plate based). Five previously reported HCN inhibitors of varying potencies and selectivities and zatebradine were used for run to run and plate to plate quality controls. […] Percent inhibition was analysed at −80, −100, −120 mV of the voltage-dependency protocol and at pulse 0 and 50 of the use-dependency protocols. Selectivity was assessed against HCN2, HCN3, and HCN4 overexpressing cell lines using similar methods. As HCN4 has a slower activation than the other HCN channels, activation was extended to achieve steady state activation.
(In general: Patch clamp records ionic current or voltage across a cell membrane.)

In another test the target is T2, HCN4 (Homo sapiens, UniProt Q9Y3Q4).
T2 construct: expressed in transfected cells
T2 sequence (Q9Y3Q4 1-1203): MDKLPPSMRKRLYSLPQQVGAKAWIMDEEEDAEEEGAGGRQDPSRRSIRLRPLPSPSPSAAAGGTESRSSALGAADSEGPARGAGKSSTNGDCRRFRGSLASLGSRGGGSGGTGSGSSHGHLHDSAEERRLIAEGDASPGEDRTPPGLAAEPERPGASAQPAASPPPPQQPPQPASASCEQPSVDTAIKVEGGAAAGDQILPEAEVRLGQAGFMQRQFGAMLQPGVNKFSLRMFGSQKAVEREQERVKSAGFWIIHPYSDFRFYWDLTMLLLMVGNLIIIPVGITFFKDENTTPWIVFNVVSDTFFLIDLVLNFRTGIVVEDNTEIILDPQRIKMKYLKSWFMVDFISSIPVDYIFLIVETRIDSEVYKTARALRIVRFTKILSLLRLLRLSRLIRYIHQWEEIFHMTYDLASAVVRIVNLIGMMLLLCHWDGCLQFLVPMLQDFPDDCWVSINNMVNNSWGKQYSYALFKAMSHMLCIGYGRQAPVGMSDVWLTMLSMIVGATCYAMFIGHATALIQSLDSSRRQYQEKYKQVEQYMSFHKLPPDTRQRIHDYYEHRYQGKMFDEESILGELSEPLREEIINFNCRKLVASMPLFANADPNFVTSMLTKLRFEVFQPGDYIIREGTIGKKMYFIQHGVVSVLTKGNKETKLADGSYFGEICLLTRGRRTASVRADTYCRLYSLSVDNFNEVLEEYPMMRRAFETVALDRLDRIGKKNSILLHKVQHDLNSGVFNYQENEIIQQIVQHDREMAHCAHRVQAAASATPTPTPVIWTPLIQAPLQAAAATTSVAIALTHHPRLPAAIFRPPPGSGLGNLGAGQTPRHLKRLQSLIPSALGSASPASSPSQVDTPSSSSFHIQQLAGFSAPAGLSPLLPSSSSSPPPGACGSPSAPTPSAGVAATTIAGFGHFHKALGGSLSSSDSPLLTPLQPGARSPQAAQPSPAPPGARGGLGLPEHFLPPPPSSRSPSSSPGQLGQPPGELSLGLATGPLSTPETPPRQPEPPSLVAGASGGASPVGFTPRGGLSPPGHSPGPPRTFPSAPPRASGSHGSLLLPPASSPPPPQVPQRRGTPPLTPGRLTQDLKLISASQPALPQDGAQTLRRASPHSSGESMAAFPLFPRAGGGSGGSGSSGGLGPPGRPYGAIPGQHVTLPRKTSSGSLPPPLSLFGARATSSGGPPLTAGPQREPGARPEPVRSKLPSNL
Briefly: HCN4 automated patch clamp current inhibition assay (Ionworks Barracuda). The note with it: HEK-293 cells stably expressing HCN4; current inhibition during a hyperpolarizing pulse of -100 mV. The procedure: as §1, §2, §3

The next test has as its target T3, HCN1 (Homo sapiens, UniProt O60741).
T3 construct: expressed in transfected cells
T3 sequence (O60741 1-890): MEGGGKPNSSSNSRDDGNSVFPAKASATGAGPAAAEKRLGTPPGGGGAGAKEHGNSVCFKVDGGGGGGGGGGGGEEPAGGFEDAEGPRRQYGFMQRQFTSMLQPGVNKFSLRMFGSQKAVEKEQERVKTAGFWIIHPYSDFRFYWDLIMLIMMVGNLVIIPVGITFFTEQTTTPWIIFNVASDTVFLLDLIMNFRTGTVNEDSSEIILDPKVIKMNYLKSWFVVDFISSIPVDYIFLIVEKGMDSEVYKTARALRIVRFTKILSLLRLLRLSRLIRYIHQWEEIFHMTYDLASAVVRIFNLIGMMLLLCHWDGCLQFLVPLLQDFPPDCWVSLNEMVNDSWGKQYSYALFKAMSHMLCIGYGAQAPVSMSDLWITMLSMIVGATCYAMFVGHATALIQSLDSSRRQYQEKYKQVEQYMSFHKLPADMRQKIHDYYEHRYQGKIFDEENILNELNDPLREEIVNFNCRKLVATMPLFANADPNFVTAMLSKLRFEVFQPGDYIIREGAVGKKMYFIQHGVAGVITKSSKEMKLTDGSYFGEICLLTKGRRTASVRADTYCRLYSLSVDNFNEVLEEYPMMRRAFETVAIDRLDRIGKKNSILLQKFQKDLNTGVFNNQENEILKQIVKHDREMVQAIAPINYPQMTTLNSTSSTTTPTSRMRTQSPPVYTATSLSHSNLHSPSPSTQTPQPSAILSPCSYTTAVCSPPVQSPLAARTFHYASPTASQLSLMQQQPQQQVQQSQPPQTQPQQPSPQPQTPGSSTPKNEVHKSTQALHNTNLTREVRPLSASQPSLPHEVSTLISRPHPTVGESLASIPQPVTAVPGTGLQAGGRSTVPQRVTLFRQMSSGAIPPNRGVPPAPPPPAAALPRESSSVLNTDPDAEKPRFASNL
Nature of the test: HCN1 automated patch clamp current inhibition assay (Ionworks Barracuda). The note with it: HEK-293 cells stably expressing HCN1; current inhibition during a hyperpolarizing pulse of -100 mV. The procedure: as §1, §2, §3

Consider `Cc1ccc(-c2c(C(N)=O)nc(C#Cc3cccc(Cl)c3)n2C)cn1` [Example 34, 2-[2-(3-Chlorophenyl)ethynyl]-1-methyl-5-(6-methyl-3-pyridyl)imidazole-4-carboxamide], for which the values for the concentration for half-maximal inhibition (IC50) on HCN3, against HCN4 and against HCN1 were 4.9 µM, above 40 µM and 0.099 µM, respectively.
On the same counts, the results for `Cc1ccc(-c2c(C(N)=O)nc(C#Cc3cccc(Cl)c3C)n2C)cn1` [Example 44, 2-[2-(3-Chloro-2-methyl-phenyl)ethynyl]-1-methyl-5-(6-methyl-3-pyridyl)imidazole-4-carboxamide] are above 40 µM, above 40 µM and 0.229 µM.
